Test results taken from patent US20240174696A1, “2,8-DIAZASPIRO[4.5]DECANE COMPOUNDS” (Genentech, Inc., priority 2021, published 2024).

These molecules were tested against Human LATS2 catalytic domain (Homo sapiens (Human), UniProt Q9NRM7) (assay: LATS2 High ATP HTRF Assay). Conditions: no asterisk: LATS2 High ATP HTRF Assay, 5000 μM ATP, 0.05 nM LATS2.
Type: biochemical
Protocol: Human LATS2 catalytic domain which contains the amino acids G553-V1088 (accession NP_055387) was purified in-house. The LATS2 catalytic domain was co-purified with Mob1b (accession NP_775739). The LATS2 biochemical HTRF assay was performed using the HTRF KinEASE-STK S1 Kit (Cisbio, Cat #62ST1PEC), following the protocol from the manufacturer. Compounds were dispensed by the Echo Liquid Handler (Labcyte) into a white 384-well plate (PerkinElmer, Cat #6008289). 3 uL of 2×LATS2 enzyme solution was added to the compounds, following by a 10 minute incubation at room temperature. Then, 2×ATP and STK S1 peptide solution was added to initiate the one hour enzyme reaction at room temperature. The final condition of the reaction was 0.2 nM LATS2, 50 μM ATP, 0.5 μM STK S1 peptide in 50 mM HEPES pH7.2, 10 mM MgCl2, 0.1% BGG, 0.005% Brij-35, 1 mM DTT. The reaction was quenched by adding 6 uL of the detection mixture which contained Streptavidin XL665 and STK Antibody-Cryptate (Cisbio), incubate for 1 hour at room temperature. The HTRF (665 nm/620 nm) signal was read on the Envision plater reader (PerkinElmer). The IC50 values were determined by fitting the % inhibition with a nonlinear four-parameter logistical equation. The Ki values were calculated using the Cheng-Prusoff equation for a competitive inhibitor, IC50═Ki (1+S/Km)+M [E] with ATP Km for LATS2=105 μM.
The LATS2 high ATP HTRF assay was performed using the same protocol as the Standard LATS2 HTRF assay. The final condition of the reaction was 0.05 nM LATS2, 5000 μM ATP, 0.5 μM STK S1 peptide in 50 mM HEPES pH7.2, 10 mM MgCl2, 0.1% BGG, 0.005% Brij-35, 1 mM DTT and the 2 hours enzyme reaction at room temperature.

Chain of Human LATS2 catalytic domain (Q9NRM7 553-1088): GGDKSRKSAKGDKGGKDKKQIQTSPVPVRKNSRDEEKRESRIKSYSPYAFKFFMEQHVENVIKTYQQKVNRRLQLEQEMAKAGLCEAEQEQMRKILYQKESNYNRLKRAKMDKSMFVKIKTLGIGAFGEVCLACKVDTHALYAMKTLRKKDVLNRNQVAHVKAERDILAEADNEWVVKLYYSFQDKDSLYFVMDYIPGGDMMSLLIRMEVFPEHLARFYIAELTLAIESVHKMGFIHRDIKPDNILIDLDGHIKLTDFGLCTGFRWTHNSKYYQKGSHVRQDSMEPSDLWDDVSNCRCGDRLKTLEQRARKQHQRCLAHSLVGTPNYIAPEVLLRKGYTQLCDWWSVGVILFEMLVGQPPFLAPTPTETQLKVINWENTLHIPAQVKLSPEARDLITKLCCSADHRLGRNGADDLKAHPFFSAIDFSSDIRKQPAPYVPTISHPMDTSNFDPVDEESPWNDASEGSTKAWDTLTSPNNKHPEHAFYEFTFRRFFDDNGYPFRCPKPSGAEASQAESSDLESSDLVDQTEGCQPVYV
Chain of Human LATS2 catalytic domain (Q7L9L4 whole entry partner, the tested form may be a part): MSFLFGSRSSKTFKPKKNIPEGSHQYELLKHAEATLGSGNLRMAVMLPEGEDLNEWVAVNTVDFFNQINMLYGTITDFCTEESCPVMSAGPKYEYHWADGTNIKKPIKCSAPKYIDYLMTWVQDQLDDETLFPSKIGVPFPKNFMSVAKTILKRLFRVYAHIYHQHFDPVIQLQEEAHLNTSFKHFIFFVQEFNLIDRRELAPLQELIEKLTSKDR

With `O[C@H]1CC[C@@H]1N1CCC2(CCN(c3nc(-c4ccncc4)nc4cnccc34)CC2)C1` (single isomer, unassigned) [Compound 178] as the molecule, how does the Ki read?
Its Ki is 0.97 nM.

With `CC(=O)N1CCC2(CCN(c3nc(-c4ccncc4)nc4cnccc34)CC2)C1` [Compound 125, 1-(8-(2-(pyridin-4-yl)pyrido[3,4-d]pyrimidin-4-yl)-2,8-diazaspiro[4.5]decan-2-yl)ethan-1-one] as the molecule, how does the Ki read?
The Ki was 16.7 nM.

`c1cc(-c2nc(N3CCC4(CCN(c5cc[nH]n5)C4)CC3)c3ccncc3n2)ccn1` [Compound 139, 4-(2-(1H-pyrazol-3-yl)-2,8-diazaspiro[4.5]decan-8-yl)-2-(pyridin-4-yl)pyrido[3,4-d]pyrimidine] was tested. Which Ki did it give?
The Ki was 19.1 nM.

How did the Ki turn out when `c1ccc(N2CCC3(CCN(c4nc(-c5ccncc5)nc5cnccc45)CC3)C2)cc1` [Compound 140, 4-(2-phenyl-2,8-diazaspiro[4.5]decan-8-yl)-2-(pyridin-4-yl)pyrido[3,4-d]pyrimidine] was run?
The Ki was 88.4 nM.

How did the Ki turn out when `N#Cc1[nH]ncc1-c1nc(N2CCC3(CCNC3)CC2)c2ccncc2n1` [Compound 155, 4-(4-(2,8-diazaspiro[4.5]decan-8-yl)pyrido[3,4-d]pyrimidin-2-yl)-1H-pyrazole-5-carbonitrile] was run?
The Ki was 51.4 nM.

For `CCC(=O)NCc1cc2c(N3CCC4(CCNC4)CC3)nc(-c3ccncc3)nc2cn1` [Compound 159, N-((2-(pyridin-4-yl)-4-(2,8-diazaspiro[4.5]decan-8-yl)pyrido[3,4-d]pyrimidin-6-yl)methyl)propionamide], which Ki is on record?
The Ki was 6.58 nM.

`CN(C)C(=O)C1CC2(CCN(c3nc(-c4ccncc4)nc4cnccc34)CC2)CN1` (stereo not drawn) [Compound 173, N,N-dimethyl-8-(2-(pyridin-4-yl)pyrido[3,4-d]pyrimidin-4-yl)-2,8-diazaspiro[4.5]decane-3-carboxamide] was tested. Which Ki did it give?
The Ki was 7.4 nM.

Which Ki does the source give for `O=C(C1CC2(CCN(c3nc(-c4ccncc4)nc4cnccc34)CC2)CN1)N1CCCC1` (stereo not drawn) [Compound 174, (8-(2-(pyridin-4-yl)pyrido[3,4-d]pyrimidin-4-yl)-2,8-diazaspiro[4.5]decan-3-yl)(pyrrolidin-1-yl)methanone] here?
Its Ki is 11.1 nM.

Which Ki does the source give for `O=C(C1CC2(CCN(c3nc(-c4ccncc4)nc4cnccc34)CC2)CN1)N1CCOCC1` (stereo not drawn) [Compound 175, morpholino(8-(2-(pyridin-4-yl)pyrido[3,4-d]pyrimidin-4-yl)-2,8-diazaspiro[4.5]decan-3-yl)methanone] here?
Its Ki is 22.6 nM.

How did the Ki turn out when `N#Cc1cnccc1-c1nc(N2CCC3(CCNC3)CC2)c2ccncc2n1` [Compound 183, 4-(4-(2,8-diazaspiro[4.5]decan-8-yl)pyrido[3,4-d]pyrimidin-2-yl)nicotinonitrile] was run?
Its Ki is 17.5 nM.

Which Ki does the source give for `Fc1[nH]ncc1-c1nc(N2CCC3(CCNC3)CC2)c2ccncc2n1` [Compound 188, 2-(5-fluoro-1H-pyrazol-4-yl)-4-(2,8-diazaspiro[4.5]decan-8-yl)pyrido[3,4-d]pyrimidine] here?
Its Ki is 5.96 nM.

Which Ki does the source give for `c1cc(-c2nc(N3CCC4(CCNC4)CC3)c3c(C4CC4)cncc3n2)ccn1` [Compound 191, 5-cyclopropyl-2-(pyridin-4-yl)-4-(2,8-diazaspiro[4.5]decan-8-yl)pyrido[3,4-d]pyrimidine] here?
Its Ki is 0.028 nM.

Which Ki does the source give for `FC(F)(F)Cc1nccc2c(N3CCC4(CCNC4)CC3)nc(-c3ccncc3)nc12` [Compound 192, 2-(pyridin-4-yl)-4-(2,8-diazaspiro[4.5]decan-8-yl)-8-(2,2,2-trifluoroethyl)pyrido[3,4-d]pyrimidine] here?
Its Ki is 1.38 nM.

`FC(F)(F)Cc1cc2c(N3CCC4(CCNC4)CC3)nc(-c3ccncc3)nc2cn1` [Compound 193, 2-(pyridin-4-yl)-4-(2,8-diazaspiro[4.5]decan-8-yl)-6-(2,2,2-trifluoroethyl)pyrido[3,4-d]pyrimidine] was tested. Which Ki did it give?
The Ki was 0.041 nM.

`Cc1n[nH]cc1-c1nc(N2CCC3(CCN(C)C3)CC2)c2cc(CC(F)(F)F)ncc2n1` [Compound 194, 2-(3-methyl-1H-pyrazol-4-yl)-4-(2-methyl-2,8-diazaspiro[4.5]decan-8-yl)-6-(2,2,2-trifluoroethyl)pyrido[3,4-d]pyrimidine] was tested. Which Ki did it give?
The Ki was 0.12 nM.
